The subject of one data set is all cell lines tested. Put plainly: Cytotoxicity in mammalian cell cultures. The settings on record: for pIC50: read-out: IC50 (cellular toxicity by chain length). From the text: Three assays were used to quantitate the effects of aliphatic alcohols on cell survival and proliferation: 1) counting cells with a hemocytometer and determining the number of cells that exclude trypan blue; 2) measuring the incorporation of ^3H-thymidine into cellular DNA by adding ^3H-thymidine (from New England Nuclear) to the culture medium, lysing the cells with water and harvesting the DNA onto filter paper; and 3) measuring total cellular protein using a sulforhodamine assay adapted for use in 96-well microtiter plates (Skehan et al., J. Natl. Cancer Inst. […] All of these methods are well known cell viability and cytotoxicity assays.

The next data set relates to HSV-2. The experiment in a line: Inhibition of HSV-2 plaque formation in Vero cells. The settings on record: for EC50: read-out: 50% Inhibition Concentration (mM); for Percent Inhibition of Plaque Formation: PLURONIC F-68 suspension added 12 hr before HSV-2 (erucyl alcohol with the virus), Toxic = monolayer destroyed within 24 hr; for inhibition of viral plaque production at concentrations that were not cytotoxic: 0.2 μM stearyl alcohol, 2 μM arachidyl alcohol; for 50% Inhibition Concentration (mM): alcohol suspension in PLURONIC F-68, Vero cells incubated 12 hr before HSV-2, linear regression, Toxic = monolayer destroyed by end of 12-hour incubation with at least 1.5 mM.

Data set [1] relates to Vero cells. The experiment in a line: Cytotoxicity to Vero cells (monolayer integrity, trypan blue exclusion). To be noted: surfactant suspension.
A further data set concerns HSV-1. The experiment in a line: HSV-1 PFU production in Vero cell cultures. In kind it is cell-based, HSV-1 (MacIntyre strain).
In another data set the test system is vaccinia virus. The experiment in a line: microbe, parasite or virus in culture. The format is cell-based, vaccinia virus (WR strain). To be noted: for pEC50: read-out: EC50 for inhibition of vaccinia virus replication.
Another data set concerns influenza virus. In kind it is in vivo, human. To be noted: for highest recorded body temperature (mean): erucyl alcohol 0.15 mM five times per day, erucamide 1.5 mM three times per day, untreated 38.9; for mean duration of flu symptoms: untreated 3 days.
The test system of data set [2] is Vero cells. The settings on record: African green monkey.
Data set [3] relates to human foreskin fibroblasts. The experiment in a line: Cell proliferation (cytostasis), sulforhodamine staining. The format is cell-based. To be noted: 1,000 cells/well, 96-hours incubation. The method, then: The effects of n-docosanol and n-docosane suspensions on cell proliferation (cytostasis) were quantitated using the sulforhodamine staining assay on cultures of human foreskin fibroblasts incubated in 96-well plates.
Foreskin fibroblasts were plated with or without aliphatic alcohol suspensions or control surfactant suspensions at 1,000 cells/well (FIG. 6A and FIG. 7) or at 30,000 cells/well (FIG. 6B) in 96 well plates. After incubation for 72 hr or 96 hr at 37° C., cells were precipitated with trichloroacetic acid, stained with sulforhodamine and quantitated by measuring the OD540 in a microtiter plate reader.

The next data set has as its system B cell hybridoma (MBI-9). Put plainly: 3H-thymidine incorporation into DNA of B cell hybridoma. The settings on record: Mus musculus, read-out: IC50 (3H-thymidine incorporation). The format is cell-based, murine. On the technique in general: Dividing cells build labelled thymidine or BrdU into new DNA.
[4] abbreviates: Human alphaherpesvirus 2, Vero, read-out: Percent Inhibition of Plaque Formation.
Where [5] appears, read: Human alphaherpesvirus 1, Vero, 72 h, read-out: EC90 for inhibition of HSV-1 PFU production, drug used alone.
[6] abbreviates: Orthopoxvirus vaccinia, Vero, 72 h.
The mark [7] stands for this setting: 15 mM n-docosanol, 500 PFU/culture, three days, read-out: EC90 for inhibition of HSV-1 PFU production in the presence of n-docosanol.

One may read the inhibition as the percentage by which the read-out fell short of the control. By EC90 is commonly meant the point of the concentration-response curve where the effect stands at 90%.

pEC50, pIC50: −log10 of the molar value. Where two headings read alike, the source gives them in different places.

As to `CCCCCCCCCCCCCCCCCCCCCCCCCCCCO` [n-octacosanol], the “cytotoxicity of the suspensions (in words)” value (“cytotoxicity” for short) in the data set on all cell lines tested is listed as “same minimal level of cytotoxicity”. In the data set on HSV-2 (Human alphaherpesvirus 2, Vero), the EC50 worked out at 10.5 mM.

On to `CCCCCCCCCCCCCCCCCCCCCC(=O)O` [n-docosanoic acid], for which the “Percent Inhibition of Plaque Formation” value with HSV-2 (4 mM) is listed as “Toxic”. Also, in the data set with HSV-2 (8 mM), the “Percent Inhibition of Plaque Formation” value was “Toxic”. In addition, in the data set with HSV-2 (15 mM), the “Percent Inhibition of Plaque Formation” value was “Toxic^†”. In the data set with HSV-2 (setting [4]), the inhibition at 500 µM turned out to be 26%, the inhibition at 1000 µM was 16% and the inhibition at 2000 µM stood at 30%. Besides, the “concentrations tolerable to the cells” value in the data set with Vero cells [1] is at most 2000 µM.

Turning to `O=c1[nH]c(=O)n([C@H]2C[C@H](O)[C@@H](CO)O2)cc1C(F)(F)F` [Trifluridine, trifluridine deoxyriboside], the “reduction of EC90 by n-docosanol” value in the data set on HSV-1 (15 mM n-docosanol) was determined as 5 fold. Besides, the EC90 was around 6.8 µM with HSV-1 (setting [5]) and around 1.35 µM in the data set on HSV-1 (read-out: EC90 for inhibition of HSV-1 PFU production in the presence of n-docosanol, 15 mM n-docosanol, 500 PFU/culture, three days). The pEC50 in the data set with vaccinia virus (setting [6]) was around 5.70.

In the case of `Nc1ncnc2c1ncn2[C@@H]1O[C@H](CO)[C@@H](O)[C@@H]1O` [Ara-A, Adenine 9-β-D-arabinofuranoside], the “reduction of EC90 by n-docosanol” value in the data set with HSV-1 (15 mM n-docosanol) was 16 fold. Besides, the EC90 is around 1.4 µM in the data set with HSV-1 (setting [7]) and around 22 µM in the data set on HSV-1 (control cultures without n-docosanol, 500 PFU/culture, three days, read-out: EC90 for inhibition of HSV-1 PFU production, drug used alone). In the data set with vaccinia virus (control cultures (medium or PLURONIC F-68), 3 days post-infection), the pEC50 was around 4.70.

On to `CCCCCCCC/C=C\CCCCCCCCCCCCO` [erucyl alcohol, cis-13-docosen-1-ol], for which, in the data set on influenza virus, the “highest recorded body temperature (mean)” value turned out to be 37.8 °C and the “mean duration of flu symptoms” value is recorded as 1.7 days. In the data set on influenza virus (in vivo), the “frequency of fever per flu episode” value is recorded as “one to three”. In the data set with Vero cells [2], the “concentrations tolerable to the cells” value was at most 1000 µM; the “concentrations toxic to Vero cells (cells rounded and detached)” value lay within 2000 to 15000 µM. For the same compound, the “EC50 lower than the concentration required for n-docosanol” value in the data set on HSV-2 (0.15 mM vs 9 mM) was 60 fold. For the same compound, the “Percent Inhibition of Plaque Formation” value with HSV-2 (2 mM) was “Toxic”. For the same compound, the “Percent Inhibition of Plaque Formation” value in the data set on HSV-2 (4 mM) is reported as “Toxic”. Also, the “Percent Inhibition of Plaque Formation” value in the data set on HSV-2 (8 mM) is reported as “Toxic”. The “Percent Inhibition of Plaque Formation” value with HSV-2 (15 mM) was “Toxic”. For the same compound, in the data set on HSV-2 (HSV-2 incubated with the suspension for 2 hours, subsequent plaque formation on Vero cells), the direct virucidal effect result is “did not inactivate the virus”. In the data set with HSV-2 (setting [4]), the inhibition at 250 µM came to 70%, the inhibition at 500 µM stood at 91% and the inhibition at 1000 µM was found to be 93%. The pEC50 in the data set with HSV-2 (Human alphaherpesvirus 2, Vero, read-out: effective concentration required to inhibit plaque formation by 50% (EC50), surfactant suspension, Example 5) is 3.82.

`CCCCCCCCCCCCCCCCCCCCCC` [n-docosane]: the “antiproliferation effects compared to the surfactant control” value in data set [3] is listed as “minimal antiproliferation effects”. Further, in the data set on HSV-2 (setting [4]), the inhibition at 1000 µM was 28%, the inhibition at 2000 µM was found to be 31%, the inhibition at 4000 µM was 42% and the inhibition at 8000 µM came to 55%. Also, in the data set with HSV-2 (setting [4]), the inhibition at 15000 µM was found to be 58%.

In the case of `CCCCCCCCCCCCCCCCCCCCCO` [heneicosanol], the pIC50 in the data set with all cell lines tested is below 1.82. In addition, the “cytotoxicity” value in the data set on all cell lines tested (surfactant suspensions) is “same minimal level of cytotoxicity”. Moreover, in the data set with HSV-2 (Human alphaherpesvirus 2, Vero), the EC50 is 16 mM.

Turning to `CCCCCCCCCCCCCCCCCCCCO` [arachidyl alcohol], the pIC50 in the data set on B cell hybridoma (MBI-9) (48 hr incubation) was around 2.77. Besides, the pIC50 with all cell lines tested is 2.82. In the data set with all cell lines tested (surfactant suspensions), the “cytotoxicity” value is “extremely cytotoxic”. Also, the “concentration that was not cytotoxic” value with Vero cells [2] is 2 µM. For the same compound, in the data set with HSV-2, the “inhibition of viral plaque production at concentrations that were not cytotoxic” value is “no inhibition of viral plaque production” and the “50% Inhibition Concentration (mM)” value is listed as “Toxic**”.

Take `CCCCCCCCCCCCCCCCCCCCCCCCO` [lignoceryl alcohol, n-tetracosanol]: the “cytotoxicity” value in the data set on all cell lines tested (surfactant suspensions) is “same minimal level of cytotoxicity”. Moreover, the EC50 with HSV-2 (Human alphaherpesvirus 2, Vero) was 14.1 mM.

`NC(=O)c1ncn([C@@H]2O[C@H](CO)[C@@H](O)[C@H]2O)n1` [ribavirin]: in the data set with HSV-1 (15 mM n-docosanol), the “reduction of EC90 by n-docosanol” value is listed as 75 fold. In addition, the EC90 was around 0.33 µM in the data set on HSV-1 (setting [7]) and around 24.6 µM in the data set with HSV-1 (setting [5]). Further, the pEC50 in the data set on vaccinia virus (setting [6]) is around 4.60.

Regarding `CCCCCCCC/C=C\CCCCCCCCCCCC(N)=O` [erucamide, cis-13-docosenoamide], in the data set with influenza virus, the “highest recorded body temperature (mean)” value was “about 37 °C” and the “mean duration of flu symptoms” value was “two”. Also, in the data set on Vero cells [2], the “concentrations toxic to Vero cells (cells rounded and detached)” value was at least 3000 µM. In the data set on HSV-2 (setting [4]), the inhibition at 30 µM stood at 34%, the inhibition at 590 µM worked out at 42%, the inhibition at 890 µM came out at 44% and the inhibition at 1200 µM worked out at 58%. In addition, in the data set with HSV-2 (setting [4]), the inhibition at 1500 µM was 68% and the inhibition at 1700 µM is 78%. Besides, in the data set with Vero cells [1], the “concentrations tolerable to the cells” value is at most 1700 µM.

Consider `CCCCCCCCCCCCCCCCCCO` [stearyl alcohol], for which, in the data set with B cell hybridoma (MBI-9), the pIC50 was above 4.46. For the same compound, the pIC50 in the data set with all cell lines tested is above 4.46. In the data set on HSV-2, the “inhibition of viral plaque production at concentrations that were not cytotoxic” value is on record as “no inhibition of viral plaque production” and the “50% Inhibition Concentration (mM)” value is recorded as “Toxic**”.

Consider `O=C(O)P(=O)(O)O` [PFA, phosphonoformic acid], for which the EC90 in the data set with HSV-1 (setting [7]) is 17 µM; in the data set with HSV-1 (Human alphaherpesvirus 1, Vero, 72 h, control cultures without n-docosanol, 500 PFU/culture, three days, read-out: EC90 for inhibition of HSV-1 PFU production, drug used alone), around 18 µM. Further, the “interaction of n-docosanol with the antiviral activity of PFA against vaccinia virus” value with vaccinia virus (presence or absence of n-docosanol or PLURONIC F-68) was “no drug-drug interaction”.

For the origin of these results see US6440980B1, “Synergistic inhibition of viral replication by long-chain hydrocarbons and nucleoside analogs” (Avanir Pharmaceuticals, priority 1996, dated 2002).
